Experimental data published in patent publication US8633245B2, “PAI-1 inhibitor” (Institute of Medicinal Molecular Design, Inc., priority 2008, dated 2014).

Biological target: T1, recombinant human PAI-1 (Homo sapiens, UniProt P05121)
T1 construct: purchased Molecular Innovations, Inc
Assay: Test Example 1: human PAI-1 inhibitory activity (tPA fluorogenic substrate, pH 7.5 Tris buffer)
Type: biochemical
Settings: Tris buffer
Experimental: 50 mM Tris, 150 mM NaCl, 10 μg/ml BSA, 0.01% Tween80 (SIGMA-ALDRICH Corporation)

T1 sequence (P05121 24-402): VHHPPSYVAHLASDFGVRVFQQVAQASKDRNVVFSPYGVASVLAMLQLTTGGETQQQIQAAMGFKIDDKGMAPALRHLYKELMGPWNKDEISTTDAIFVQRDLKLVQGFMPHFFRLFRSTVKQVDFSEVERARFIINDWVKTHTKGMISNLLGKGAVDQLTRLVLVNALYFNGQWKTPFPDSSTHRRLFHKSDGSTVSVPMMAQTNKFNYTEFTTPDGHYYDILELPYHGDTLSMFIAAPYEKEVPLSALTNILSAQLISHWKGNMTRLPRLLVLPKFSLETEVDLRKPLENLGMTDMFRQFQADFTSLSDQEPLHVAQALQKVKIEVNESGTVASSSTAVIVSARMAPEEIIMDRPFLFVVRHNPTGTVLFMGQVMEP

| Structure (SMILES) | Inhibition Rate of PAI-1 Activity (%) (Compound Concentration 5 μM) | Inhibition Rate of PAI-1 Activity (%) (Compound Concentration 10 μM) | Inhibition Rate of PAI-1 Activity (%) (Compound Concentration 25 μM) |
| --- | --- | --- | --- |
| CCCOc1ccc(N(Cc2ccccc2)C(=O)C(=O)O)cc1-c1ccc(OC(F)(F)F)cc1 [Compound 210] | 39 | 70 | 94 |
| O=C(O)C(=O)N(CCCc1ccccc1)c1ccc(-c2ccc(OC(F)(F)F)cc2)cc1 [Compound 224] | 29 | 63 | 86 |
| O=C(O)C(=O)N(CCCCc1ccccc1)c1ccc(-c2ccc(OC(F)(F)F)cc2)cc1 [Compound 225] | 27 | 50 | 88 |
| O=C(O)C(=O)N(CCCCCc1ccccc1)c1ccc(-c2ccc(OC(F)(F)F)cc2)cc1 [Compound 228] | 45 | 71 | 95 |
| CCCOc1ccc(N(CCCc2ccccc2)C(=O)C(=O)O)cc1-c1ccc(OC(F)(F)F)cc1 [Compound 229] | 48 | 80 | 94 |
| CCCOc1ccc(N(CCCc2ccccc2)C(=O)C(=O)O)c(-c2ccc(OC(F)(F)F)cc2)c1 [Compound 232] | 52 | 82 | 96 |
| CCCCOc1ccc(-c2ccc(OC(F)(F)F)cc2)cc1N(CCCc1ccccc1)C(=O)C(=O)O [Compound 235] | 66 | 89 | 93 |
| CCC(CC)Oc1ccc(N(CCCc2ccccc2)C(=O)C(=O)O)c(-c2ccc(OC(F)(F)F)cc2)c1 [Compound 237] | 75 | 92 |  |
| CC(C)Oc1ccc(N(CCCc2ccccc2)C(=O)C(=O)O)c(-c2ccc(OC(F)(F)F)cc2)c1 [Compound 239] | 43 | 80 | 98 |
| CCCOc1ccc(N(CCCCc2ccccc2)C(=O)C(=O)O)cc1-c1ccc(OC(F)(F)F)cc1 [Compound 240] | 62 | 91 | 95 |
| CCCCCOc1ccc(-c2ccc(OC(F)(F)F)cc2)cc1N(CCCCCc1ccccc1)C(=O)C(=O)O [Compound 242] | 88 | 94 |  |
| O=C(O)C(=O)N(CCCCc1ccccc1)c1ccc(N2CCOCC2)c(-c2ccc(OC(F)(F)F)cc2)c1 [Compound 243] | 42 | 64 | 89 |
| CCCCCOc1ccc(N(CCCCc2ccccc2)C(=O)C(=O)O)cc1-c1ccc(OC(F)(F)F)cc1 [Compound 244] | 71 | 91 |  |
| CCCCCCOc1ccc(-c2ccc(OC(F)(F)F)cc2)cc1N(CCCCc1ccccc1)C(=O)C(=O)O [Compound 245] | 93 | 97 |  |
| Cc1cc(N(C)C)c(-c2ccc(OC(F)(F)F)cc2)cc1N(CCCCc1ccccc1)C(=O)C(=O)O [Compound 246] | 79 | 96 |  |
| O=C(O)C(=O)N(CCCCc1ccccc1)c1ccc(N2CCCCC2)c(-c2ccc(OC(F)(F)F)cc2)c1 [Compound 247] | 93 | 99 |  |
| CC(C)Oc1ccc(N(CCCCc2ccccc2)C(=O)C(=O)O)cc1-c1ccc(OC(F)(F)F)cc1 [Compound 248] | 60 | 89 | 96 |
| CC(C)(C)Oc1ccc(N(CCCCc2ccccc2)C(=O)C(=O)O)cc1-c1ccc(OC(F)(F)F)cc1 [Compound 249] | 68 | 89 |  |
| O=C(O)C(=O)N(CCCCc1ccccc1)c1ccc(N2CCCCC2=O)c(-c2ccc(OC(F)(F)F)cc2)c1 [Compound 250] | 83 | 78 |  |
| CCCCCCN(C(=O)C(=O)O)c1ccc(Oc2ccc(OC(F)(F)F)cc2)cc1 [Compound 252] | 3 | 6 | 34 |
| O=C(O)C(=O)N(c1ccc(-c2ccc(OC(F)(F)F)cc2)cc1)C1CCCCC1 [Compound 253] | 9 | 16 | 36 |

Now from value to compound:

| Inhibition Rate of PAI-1 Activity (%) (Compound Concentration 5 μM) | Inhibition Rate of PAI-1 Activity (%) (Compound Concentration 10 μM) | Inhibition Rate of PAI-1 Activity (%) (Compound Concentration 25 μM) | Structure (SMILES) |
| --- | --- | --- | --- |
| 10 | 11 | 31 | O=C(O)C(=O)N(Cc1ccc(O)cc1)c1ccc(-c2ccc(OC(F)(F)F)cc2)cc1 [Compound 181] |
| 56 | 85 | 89 | COc1ccc(-c2ccc(OC(F)(F)F)cc2)cc1N(Cc1ccc(C(C)(C)C)cc1)C(=O)C(=O)O [Compound 182] |
|  | 11 | 29 | O=C(O)C(=O)N(Cc1ccc(OC(F)(F)F)cc1)c1ccc(-c2ccccc2)cc1 [Compound 183] |
| 59 | 86 | 85 | Cc1cc(N(Cc2ccc(C(C)(C)C)cc2)C(=O)C(=O)O)ccc1-c1ccc(OC(F)(F)F)cc1 [Compound 184] |
| 75 | 92 | 88 | Cc1ccc(N(Cc2ccc(C(C)(C)C)cc2)C(=O)C(=O)O)cc1Oc1ccc(OC(F)(F)F)cc1 [Compound 187] |
| 74 | 92 | 87 | CC(C)(C)c1ccc(CN(C(=O)C(=O)O)c2ccc(Cl)cc2Oc2ccc(OC(F)(F)F)cc2)cc1 [Compound 191] |
| 77 | 94 | 93 | CCCCCOc1ccc(-c2ccc(OC(F)(F)F)cc2)cc1N(Cc1ccccc1)C(=O)C(=O)O [Compound 195] |
| 18 | 35 | 64 | CC(C)(C)c1ccc(CN(C(=O)C(=O)O)c2ccc(-c3ccc(OC(F)(F)F)cc3)c(CCC(=O)O)c2)cc1 [Compound 196] |
| 64 | 89 | 92 | CC(C)(C)c1ccc(CN(C(=O)C(=O)O)c2ccc(-c3cccc(OC(F)(F)F)c3)cc2)cc1 [Compound 200] |
| 64 | 89 | 82 | CC(C)(C)c1ccc(CN(C(=O)C(=O)O)c2ccc(-c3ccccc3OC(F)(F)F)cc2)cc1 [Compound 201] |
| 70 | 94 | 98 | CC(C)(C)c1ccc(-c2ccc(N(Cc3ccccc3OC(F)(F)F)C(=O)C(=O)O)cc2)cc1 [Compound 202] |
| 69 | 91 | 97 | CC(C)(C)c1ccc(-c2ccc(N(Cc3cccc(OC(F)(F)F)c3)C(=O)C(=O)O)cc2)cc1 [Compound 203] |
| 58 | 85 | >99 | CC(C)(C)c1ccc(-c2ccc(N(Cc3ccc(Cl)cc3)C(=O)C(=O)O)cc2)cc1 [Compound 204] |
| 50 | 80 | 98 | CC(C)(C)c1ccc(-c2ccc(N(Cc3ccc(C(F)(F)F)cc3)C(=O)C(=O)O)cc2)cc1 [Compound 205] |
| 79 | 90 |  | CCC(CC)Oc1ccc(N(Cc2ccc(C(C)(C)C)cc2)C(=O)C(=O)O)c(-c2ccc(OC(F)(F)F)cc2)c1 [Compound 207] |
| 81 | 98 | 94 | CC(C)Oc1ccc(N(Cc2ccc(C(C)(C)C)cc2)C(=O)C(=O)O)c(-c2ccc(OC(F)(F)F)cc2)c1 [Compound 209] |
| 75 | 88 | 84 | CC(C)(C)c1ccc(CN(C(=O)C(=O)O)c2ccc(N3CCOCC3)c(-c3ccc(OC(F)(F)F)cc3)c2)cc1 [Compound 216] |
| 86 | 84 |  | CC(C)(C)c1ccc(CN(C(=O)C(=O)O)c2ccc(N3CCCCC3)c(-c3ccc(OC(F)(F)F)cc3)c2)cc1 [Compound 217] |
| 83 | 78 |  | CC(C)(C)Oc1ccc(N(Cc2ccc(C(C)(C)C)cc2)C(=O)C(=O)O)cc1-c1ccc(OC(F)(F)F)cc1 [Compound 218] |
| 33 | 58 | 86 | CC(C)(C)c1ccc(CN(C(=O)C(=O)O)c2ccc(N3CCCCC3=O)c(-c3ccc(OC(F)(F)F)cc3)c2)cc1 [Compound 219] |
| 51 | 86 | 89 | CC(c1ccc(C(C)(C)C)cc1)N(C(=O)C(=O)O)c1ccc(-c2ccc(OC(F)(F)F)cc2)cc1 (stereo not drawn) [Compound 220] |
| 59 | 83 | 96 | CCCOc1ccc(-c2ccc(OC(F)(F)F)cc2)cc1N(CCCc1ccccc1)C(=O)C(=O)O [Compound 234] |
| 61 | 86 | 95 | CCCOc1ccc(-c2ccc(OC(F)(F)F)cc2)cc1N(CCCCc1ccccc1)C(=O)C(=O)O [Compound 236] |
